Assay results published in ChEMBL document CHEMBL2331111, “Antioxidant and anti-inflammatory meroterpenoids from the brown alga Cystoseira usneoides” (J Nat Prod, 2013).
The source made the active and inactive calls. No cut-off for these calls is given here.

Columns and labels:
THP-1 [1] = assay: Antiinflammatory activity in PMA-treated human THP1 cells assessed as inhibition of LPS-induced TNFalpha production at 10 uM incubated for 24 hrs prior to LPS challenge measured after 24 hrs by ELISA relative to control; type: functional
THP-1 [2] = assay: Cytotoxicity against PMA-treated human THP1 cells assessed as cell viability at 8 to 10 uM after 48 hrs by SRB assay; type: cell-based; settings: thp-1, 48 h
[3] = Ratio of trolox EC50 to compound EC50 for ABTS free radical scavenging activity
[4] = Antioxidant activity assessed as ABTS free radical scavenging activity measured up to 6 mins by spectrophotometric analysis; type: functional
THP-1 [5] = assay: Antiinflammatory activity in PMA-treated human THP1 cells assessed as inhibition of LPS-induced TNFalpha production at 8 uM incubated for 24 hrs prior to LPS challenge measured after 24 hrs by ELISA relative to control; type: functional
THP-1 [6] = assay: Antiinflammatory activity in PMA-treated human THP1 cells assessed as inhibition of LPS-induced TNFalpha production at 2 uM incubated for 24 hrs prior to LPS challenge measured after 24 hrs by ELISA; type: functional, cell-based
THP-1 [7] = assay: Antiinflammatory activity in PMA-treated human THP1 cells assessed as inhibition of LPS-induced TNFalpha production at 6 uM incubated for 24 hrs prior to LPS challenge measured after 24 hrs by ELISA relative to control; type: functional

| SMILES | EC50 [4] [µM] | inhibition at 10 µM (THP-1 [1]) [%] | Activity (THP-1 [2]) | Ratio EC50 [3] | inhibition at 8 µM (THP-1 [5]) [%] | inhibition (THP-1 [6]) | inhibition at 6 µM (THP-1 [7]) [%] |
| --- | --- | --- | --- | --- | --- | --- | --- |
| COc1c(C)cc(O)cc1C/C=C(\C)CC(=O)/C=C(\C)CCCC(C)(O)C(=O)/C=C/C(C)(C)O (centres undefined) | 33.1 | 64 | Non-toxic | 0.78 | – | – | – |
| COc1c(C)cc(O)cc1/C=C/C(C)(O)CC(=O)/C=C(/C)CCCC(C)C(=O)/C=C/C(C)(C)O (centres undefined) [CYSTODIONE A] | 22.5 | – | Non-toxic | 1.15 | 33 | – | – |
| COc1c(C)cc(O)cc1/C=C/C(C)(O)CC(=O)/C=C(/C)CCCC(C)=O (centres undefined) [CYSTODIONE C] | 55.9 | – | – | 0.46 | – | – | – |
| COc1c(C)cc(O)cc1C/C=C(\C)CC(=O)/C=C(/C)CCCC(C)C(=O)/C=C/C(C)(C)O (centres undefined) | 26.3 | – | Non-toxic | 0.98 | – | inactive | – |
| COc1c(C)cc(O)cc1/C=C/C(C)(O)CC(=O)/C=C(\C)CCCC(C)C(=O)/C=C/C(C)(C)O (centres undefined) [CYSTODIONE B] | 24.4 | – | Non-toxic | 1.06 | – | – | 11 |
| COc1c(C)cc(O)cc1C/C=C(\C)CC(=O)/C=C(\C)CCCC(C)C(=O)/C=C/C(C)(C)O (centres undefined) | 24.5 | – | – | 1.06 | – | – | – |

Further lines, with some results ahead:

| EC50 [4] [µM] | SMILES | inhibition at 10 µM (THP-1 [1]) [%] | Activity (THP-1 [2]) | Ratio EC50 [3] | inhibition at 8 µM (THP-1 [5]) [%] | inhibition (THP-1 [6]) | inhibition at 6 µM (THP-1 [7]) [%] |
| --- | --- | --- | --- | --- | --- | --- | --- |
| 43.1 | COc1c(C)cc(O)cc1C/C=C(\C)CC(=O)/C=C(/C)CCCC(C)(O)C(=O)/C=C/C(C)(C)O (centres undefined) [USNEOIDONE Z] | 73 | Non-toxic | 0.6 | – | – | – |
| 51.6 | COc1c(C)cc(O)cc1C/C=C(\C)CC(=O)/C=C(/C)CCCC(C)=O [CYSTOMEXICONE A] | – | – | 0.5 | – | – | – |
| 33.3 | COc1c(C)cc(O)cc1C/C=C(\C)CC(=O)/C=C(\C)CCCC(C)=O [CYSTOMEXICONE B] | – | – | 0.78 | – | – | – |
| 25.9 | Cc1c(C)c2c(c(C)c1O)CCC(C)(C(=O)O)O2 (centres undefined) [TROLOX] | – | – | 1 | – | – | – |
| 44.7 | COc1c(C)cc(O)cc1/C=C/C(C)(O)CC(=O)/C=C(\C)CCCC(C)=O (centres undefined) [CYSTODIONE D] | 11 | Non-toxic | 0.58 | – | – | – |
